Reference: patent publication US9340577B2, “HLA binding motifs and peptides and their uses” (priority 1992, dated 2016)
No end group written: not given here.

Key:
Experiment in all cases: biochemical
[1] = target: DR7 (DRB1*0701) (Homo sapiens, UniProt P01903+P01911, A100R/A102G/A103Q/D57E/D86V/E43K/F76Y/K127E/L162R/M171V/P40G/Q125H/Q99D/R33Q/R42Y/R54Q/S133A/S66F/T210M/V115G/Y107V/Y59L/Y89S); assay type: binding
[2] = target: DRB1*1201 (Homo sapiens, UniProt P01903+P01911, A100R/A169T/D57E/D86V/F55L/H45Y/K41T/L162R/M171V/P40S/Q125H/Q178H/Q39Y/Q99D/R42G/S66L/T262R/V114A/V67L/W38E/Y59H/Y61H/Y89S); assay type: binding
[3] = target: DRB1*0802 (Homo sapiens, UniProt P01903+P01911, A100R/A103L/A169T/F76Y/H45Y/I96F/K41T/L162R/M171V/P40S/Q125H/Q178H/Q39Y/Q99D/R218S/R42G/S66Y/V115G/W38E); assay type: binding
[4] = target: DRB1*0301 (Homo sapiens, UniProt P01903+P01911, A100K/A102G/A103R/A169T/F55Y/I96L/K41T/L162R/M171V/P40S/Q125H/Q178H/Q39Y/R42S/S66N/T106N/T262R/W38E/Y61H); assay type: binding
[5] = target: DRB1*0901 (Homo sapiens, UniProt P01903+P01911, A100R/A103E/D57H/D86V/F55Y/F60I/F76Y/I96F/K127E/L162R/M171V/P40D/Q125H/Q99R/R33Q/R42F/S133A/S66N/T210M/V115G/W38K/Y107V/Y59G/Y89S); assay type: binding
[6] = target: DR1 (DRB1*0101) (Homo sapiens, UniProt P01903+P01911, A100R/D57E/F55L/F60I/F76Y/I96L/L162R/M171V/P40L/Q125E/R42F/V115G/Y59C); assay type: binding
[7] = target: DRB1*1302 (Homo sapiens, UniProt P01903+P01911, A100E/A169T/K41T/L162R/M171V/P40S/Q125H/Q178H/Q39Y/Q99D/R42S/S66N/T262R/V115G/W38E/Y61H); assay type: binding
[8] = target: DRB5*0101 (Homo sapiens, UniProt P01903+Q30154); conditions: Binding affinity DRB5 *0101
[9] = target: DRB1*1101 (Homo sapiens, UniProt P01903+P01911, A100R/A169T/A87E/I96F/K41T/L162R/M171V/P40S/Q125H/Q178H/Q39Y/Q99D/R42S/S66Y/T262R/V115G/W38E); conditions: Binding affinity DRB1 *1101
[10] = target: DRB4*0101 (Homo sapiens, UniProt P01903+P13762, G164S); assay type: binding
[11] = target: DRB1*0405 (Homo sapiens, UniProt P01903+P01911, A100R/A169T/D86S/F76Y/I96L/K127E/L162R/M171V/N62H/P40V/Q125Y/R42H/S133A/S149N/S66Y/V115G/V209L/W38E); assay type: binding
[12] = target: DR4w4 (DRB1*0401) (Homo sapiens, UniProt P01903+P01911, A100K/A169T/F76Y/I96L/K127E/L162R/M171V/N62H/P40V/Q125Y/R42H/S133A/S149N/S66Y/V115G/V209L/W38E); assay type: binding
[13] = target: DRB1*1501 (Homo sapiens, UniProt P01903+P01911); assay type: binding

Chain of DRB1*1101 (P01903 26-254 limits assumed, other chains not shown): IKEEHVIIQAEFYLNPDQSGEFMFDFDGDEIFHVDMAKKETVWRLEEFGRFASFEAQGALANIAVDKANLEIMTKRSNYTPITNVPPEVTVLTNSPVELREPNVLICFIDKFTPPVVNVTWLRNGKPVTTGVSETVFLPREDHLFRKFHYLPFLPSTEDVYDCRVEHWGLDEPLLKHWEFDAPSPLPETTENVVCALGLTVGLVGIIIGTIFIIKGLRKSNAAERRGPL
Chain of DRB1*1302 (P01903 26-254 limits assumed, other chains not shown): as above
Chain of DRB1*0301 (P01903 26-254 limits assumed, other chains not shown): as above

Compound: ETCMVIEPPKLRSQT [Peptide 90.0083]
- IC50 [1]: 0.794 µM
- IC50 [2]: 0.825 µM
- IC50 [3]: 4.3 µM
- IC50 [4]: 0.275 µM
- IC50 [5]: > 20 µM
- IC50 [6]: 0.026 µM
- IC50 [7]: > 20 µM
- IC50 [8]: 0.124 µM
- IC50 [9]: 4.74 µM
- IC50 [10]: 0.016 µM
- IC50 [11]: 2.28 µM
- IC50 [12]: 1.55 µM
- IC50 [13]: 0.67 µM

Compound: VDFIDTQLSICEQAE [Peptide 89.0078]
- IC50 [1]: 0.426 µM
- IC50 [2]: 2.02 µM
- IC50 [3]: 7.43 µM
- IC50 [4]: 3.78 µM
- IC50 [5]: 6 µM
- IC50 [7]: 1.55 µM
- IC50 [8]: 1.52 µM
- IC50 [9]: 3.92 µM
- IC50 [10]: 0.471 µM
- IC50 [11]: 0.284 µM
- IC50 [12]: 1.28 µM
- IC50 [13]: 0.609 µM

Compound: RLTVAKLMSNLLSIP [Peptide 89.0065]
- IC50 [1]: 0.045 µM
- IC50 [2]: 0.107 µM
- IC50 [3]: 0.483 µM
- IC50 [4]: 4.15 µM
- IC50 [5]: 0.994 µM
- IC50 [6]: 0.0043 µM
- IC50 [7]: 0.0072 µM
- IC50 [8]: 0.498 µM
- IC50 [9]: 0.062 µM
- IC50 [10]: 0.004 µM
- IC50 [11]: 0.043 µM
- IC50 [12]: 0.0062 µM
- IC50 [13]: 0.0095 µM

Compound: GEIYIIEEDTCTMVT [Peptide 90.0202]
- IC50 [1]: 6.6 µM
- IC50 [2]: > 20 µM
- IC50 [3]: > 20 µM
- IC50 [4]: 0.055 µM
- IC50 [5]: > 20 µM
- IC50 [6]: 1.6 µM
- IC50 [7]: 0.426 µM
- IC50 [8]: > 20 µM
- IC50 [9]: > 20 µM
- IC50 [10]: 0.322 µM
- IC50 [11]: 8.11 µM
- IC50 [12]: 0.148 µM
- IC50 [13]: > 20 µM

Compound: EVHMENESIYCPDSV [Peptide 90.0238]
- IC50 [1]: > 20 µM
- IC50 [2]: > 20 µM
- IC50 [3]: > 20 µM
- IC50 [4]: 0.41 µM
- IC50 [5]: > 20 µM
- IC50 [6]: 0.634 µM
- IC50 [7]: 2.37 µM
- IC50 [8]: > 20 µM
- IC50 [9]: > 20 µM
- IC50 [10]: > 20 µM
- IC50 [11]: > 20 µM
- IC50 [12]: 5.25 µM
- IC50 [13]: 0.516 µM

Compound: DWVMAIFGVNPTVAE [Peptide 89.0079]
- IC50 [1]: 0.108 µM
- IC50 [2]: 0.43 µM
- IC50 [3]: 6.72 µM
- IC50 [4]: 0.431 µM
- IC50 [5]: 1.62 µM
- IC50 [6]: 0.058 µM
- IC50 [7]: 0.06 µM
- IC50 [9]: 1.82 µM
- IC50 [10]: 0.0065 µM
- IC50 [11]: 0.085 µM
- IC50 [12]: 0.045 µM
- IC50 [13]: 0.026 µM

Compound: CC[C@H](C)[C@H](NC(=O)[C@H](Cc1c[nH]c2ccccc12)NC(=O)[C@H](CCC(=O)O)NC(=O)[C@@H]1CCCN1)C(=O)N[C@@H](CCC(N)=O)C(=O)N[C@@H](CCCNC(=N)N)C(=O)N[C@@H](CCC(N)=O)C(=O)N[C@H](C(=O)N[C@H](C(=O)N[C@@H](CC(C)C)C(=O)N[C@@H](CCC(N)=O)C(=O)N[C@@H](Cc1c[nH]cn1)C(=O)N[C@@H](CO)C(=O)N[C@@H](Cc1ccccc1)C(=O)N[C@@H](CC(N)=O)C(=O)O)C(C)C)[C@@H](C)O [Peptide 89.0011]
- IC50 [1]: 6.12 µM
- IC50 [2]: 4.02 µM
- IC50 [3]: 0.213 µM
- IC50 [4]: 0.155 µM
- IC50 [5]: 6.18 µM
- IC50 [6]: 2.26 µM
- IC50 [7]: 0.473 µM
- IC50 [8]: 11.8 µM
- IC50 [10]: 0.0045 µM
- IC50 [11]: 0.259 µM
- IC50 [12]: 0.018 µM
- IC50 [13]: 8.86 µM

Compound: CMLIQPPKLRSTAAA [Peptide 89.0047]
- IC50 [1]: 0.47 µM
- IC50 [2]: 3.69 µM
- IC50 [3]: 2.65 µM
- IC50 [4]: 5.76 µM
- IC50 [5]: 7.54 µM
- IC50 [7]: 3.61 µM
- IC50 [8]: 0.904 µM
- IC50 [9]: 0.982 µM
- IC50 [10]: 0.567 µM
- IC50 [11]: > 20 µM
- IC50 [12]: 2.38 µM
- IC50 [13]: 2.64 µM

Compound: NGWFYVEAVIDRQTG [Peptide 90.0062]
- IC50 [1]: 0.157 µM
- IC50 [2]: 4.04 µM
- IC50 [3]: 3.99 µM
- IC50 [4]: 0.241 µM
- IC50 [5]: 0.453 µM
- IC50 [6]: 0.157 µM
- IC50 [7]: 4.87 µM
- IC50 [8]: 0.558 µM
- IC50 [9]: 3.35 µM
- IC50 [10]: 0.014 µM
- IC50 [11]: 0.012 µM
- IC50 [12]: 0.069 µM
- IC50 [13]: > 20 µM

Compound: LKAICIENNSKTAKR [Peptide 90.0064]
- IC50 [1]: 6.35 µM
- IC50 [2]: 4.58 µM
- IC50 [4]: 0.086 µM
- IC50 [5]: > 20 µM
- IC50 [6]: 0.062 µM
- IC50 [7]: 0.144 µM
- IC50 [10]: 0.085 µM
- IC50 [11]: 0.369 µM
- IC50 [12]: 0.036 µM
- IC50 [13]: 0.359 µM
